The values below come from patent US11993581B2, “Pyridazine compounds for inhibiting Nav1.8” (Lieber Institute, Inc., priority 2018, dated 2024).

The assay concerns the target T1, human Nav1.8 (hNav1.8) ion channel (Homo sapiens, UniProt Q9Y5Y9).
T1 construct: expressed in transfected cells
The assay can be described thus: Nav1.8 inhibition, estimated IC50 (Nav1.8 fluorescence, PatchXpress and/or IonFlux HT automated patch clamp assay). The format is cell-based. Conditions: HEK293 cells stably expressing hNav1.8; determined using one or more of the described methods; read-out: Activity range (estimated IC50). As for the experimental part:
The ability of pyridine carboxamide derivatives exemplified above to inhibit the Nav1.8 channel was determined using one or more of the methods described below.
HEK Nav1.8 β1/β2 Stably Expressing Cell Line
A HEK293 cell line stably expressing the human Nav1.8 (hNav1.8) ion channel with β1/β2 subunits was constructed. The cell line is suitable for IC50 determination in fluorescence and electrophysiological based assays. It is also suitable to conduct mechanism of action pharmacology studies in electrophysiological assays. HEK293 Nav1.8 cells are grown as adherent monolayers in DMEM/high glucose media, 10% fetal bovine serum, Na pyruvate (2 mM), Hepes (10 mM) with selection agents G418 (400 mg/L) and puromycin (0.5 mg/L) at 37 degrees C., 10% CO2.
Nav1.8 Fluorescence Inhibition Assay
Compounds were made up to or supplied as a 10-mM stock solution using DMSO as the vehicle. Concentration-response curves were generated using a Matrix multichannel pipettor. Compound source plates were made by diluting 10 mM compound stocks to create 500 μM (100×) solutions in DMSO in 96-well v-bottom plates. Compounds were then serially diluted in 100% DMSO to generate a 5 point, 4-fold dilution scheme dose response curve. 2 μL of the 100× dose response curves were then added to preincubation and stimulation assay plates. 100 μL of pre-incubation buffer and 200 μl of stimulation buffer was then added to the plates resulting in a final assay test concentration range of 5 μM to 0.02 μM with a final DMSO concentration of 1%.
On the day of assay, plates were washed to remove cell culture media using 2K EBSS buffer (135 mM NaCl, 2 mM KCl, 5 mM Glucose, 2 mM CaCl2, 1 mM MgCl2, 10 mM HEPES, pH 7.4). The Na-sensitive fluorescent dye, Asante Natrium Green-2 (ANG-2) was incubated for 60 min to allow equilibration and then washed with 2K EBSS. Plates were then transferred to a fluorescence plate reader (FLIPR™, Molecular Devices) for fluorescence measurement using an excitation wavelength of 490 nm and an emission wavelength of 565 nm. Compounds were pre-incubated for 5 min at final test concentration in the presence of ouabain (30 μM) to inhibit Na+ efflux through Na+/K+ exchanger. Following the pre-incubation phase, hNav1.8 channels were stimulated with 10 μM of the pyrethroid deltamethrin to prevent channel inactivation. The assay was run for 15 minutes with vehicle and 30 μM tetracaine serving as negative and positive controls, respectively. The peak change in fluorescence relative to negative and positive control wells was calculated and fit with a logistic equation to determine IC50.
PatchXpress Nav1.8 Inhibition Assay
HEK-Nav1.8 β1/β2 cells were recorded in whole cell patch-clamp using the PatchXpress automated patch clamp platforms (Molecular Devices). Cell suspensions were obtained by trypsinization of adherent monolayers, followed by gentle rocking for minimally 30 min. Compounds were prepared from 10 mM DMSO stocks.
Nav1.8 channel variants were evaluated using Protocol 1 in which cells were initially voltage clamped at a holding potential of −100 mV to maintain Nav1.8 in a closed resting state. After current amplitude becomes stable, the mid-point voltage of steady state inactivation was determined for each cell using a series of 5 sec conditioning steps to increasingly depolarized voltages (−100 to 0 mV) The holding potential was then reset to a voltage that produces ˜50% inactivation (Vhalf-set automatically via PatchXpress scripts) so that closed and inactivated channel inhibition could be assessed. Protocol 1 was run at a frequency of 0.1 Hz until current amplitude is steady (automatically determined by PatchXpress scripts). The effect of test reagent on Nav current amplitude was monitored using custom PatchXpress stability scripts which determines the timing of compound addition and washout.
Data were processed and analyzed using DataXpress 2.0 (Molecular Devices). […]

T1 sequence (Q9Y5Y9 whole entry): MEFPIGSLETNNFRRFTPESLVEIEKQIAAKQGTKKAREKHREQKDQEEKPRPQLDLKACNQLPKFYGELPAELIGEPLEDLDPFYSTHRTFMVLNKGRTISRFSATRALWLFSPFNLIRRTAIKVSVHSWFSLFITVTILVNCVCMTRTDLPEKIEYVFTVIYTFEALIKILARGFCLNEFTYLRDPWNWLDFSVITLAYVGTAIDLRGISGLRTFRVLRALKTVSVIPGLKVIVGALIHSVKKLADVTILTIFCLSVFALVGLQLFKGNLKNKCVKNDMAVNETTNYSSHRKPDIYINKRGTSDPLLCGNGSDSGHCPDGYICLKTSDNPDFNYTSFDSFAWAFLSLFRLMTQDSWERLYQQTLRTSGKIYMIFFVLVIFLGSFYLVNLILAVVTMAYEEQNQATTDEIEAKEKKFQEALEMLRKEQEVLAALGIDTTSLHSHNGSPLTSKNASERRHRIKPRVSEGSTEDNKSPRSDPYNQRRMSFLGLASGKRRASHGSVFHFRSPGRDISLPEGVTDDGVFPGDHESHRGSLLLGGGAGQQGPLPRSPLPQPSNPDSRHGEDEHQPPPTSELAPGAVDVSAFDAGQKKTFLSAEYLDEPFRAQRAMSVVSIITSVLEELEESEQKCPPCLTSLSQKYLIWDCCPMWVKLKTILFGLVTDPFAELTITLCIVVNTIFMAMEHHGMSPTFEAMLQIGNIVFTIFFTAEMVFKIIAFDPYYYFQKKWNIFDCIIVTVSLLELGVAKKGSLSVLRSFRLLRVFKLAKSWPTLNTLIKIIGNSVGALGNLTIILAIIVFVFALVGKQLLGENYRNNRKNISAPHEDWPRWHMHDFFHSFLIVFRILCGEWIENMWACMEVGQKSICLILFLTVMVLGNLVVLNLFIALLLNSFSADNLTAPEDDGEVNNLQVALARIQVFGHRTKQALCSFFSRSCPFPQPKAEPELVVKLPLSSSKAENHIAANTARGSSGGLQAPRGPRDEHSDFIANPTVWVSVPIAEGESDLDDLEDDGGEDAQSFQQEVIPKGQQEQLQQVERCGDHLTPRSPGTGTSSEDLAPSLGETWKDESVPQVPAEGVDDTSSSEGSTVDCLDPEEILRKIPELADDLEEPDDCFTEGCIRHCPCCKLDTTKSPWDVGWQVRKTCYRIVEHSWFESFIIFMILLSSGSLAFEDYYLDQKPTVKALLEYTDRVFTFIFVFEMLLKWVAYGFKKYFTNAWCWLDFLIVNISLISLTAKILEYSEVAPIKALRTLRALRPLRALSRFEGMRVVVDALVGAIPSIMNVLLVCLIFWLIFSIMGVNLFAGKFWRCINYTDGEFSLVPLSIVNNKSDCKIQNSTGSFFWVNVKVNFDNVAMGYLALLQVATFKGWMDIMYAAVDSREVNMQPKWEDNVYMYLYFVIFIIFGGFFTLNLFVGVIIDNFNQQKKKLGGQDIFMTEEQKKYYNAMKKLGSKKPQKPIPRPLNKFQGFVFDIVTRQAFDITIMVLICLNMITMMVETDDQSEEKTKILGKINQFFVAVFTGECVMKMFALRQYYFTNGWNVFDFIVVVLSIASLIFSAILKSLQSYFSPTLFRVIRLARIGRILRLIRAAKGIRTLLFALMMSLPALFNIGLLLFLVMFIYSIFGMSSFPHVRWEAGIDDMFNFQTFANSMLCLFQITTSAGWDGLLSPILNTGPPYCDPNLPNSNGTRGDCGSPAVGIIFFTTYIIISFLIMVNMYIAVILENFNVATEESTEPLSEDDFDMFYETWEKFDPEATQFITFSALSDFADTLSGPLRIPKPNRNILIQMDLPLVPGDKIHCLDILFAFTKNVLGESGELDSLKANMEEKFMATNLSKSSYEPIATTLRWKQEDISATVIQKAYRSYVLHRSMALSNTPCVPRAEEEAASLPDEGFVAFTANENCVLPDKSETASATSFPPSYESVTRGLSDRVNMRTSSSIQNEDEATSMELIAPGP
T1 sequence (Q07699 19-218 partner): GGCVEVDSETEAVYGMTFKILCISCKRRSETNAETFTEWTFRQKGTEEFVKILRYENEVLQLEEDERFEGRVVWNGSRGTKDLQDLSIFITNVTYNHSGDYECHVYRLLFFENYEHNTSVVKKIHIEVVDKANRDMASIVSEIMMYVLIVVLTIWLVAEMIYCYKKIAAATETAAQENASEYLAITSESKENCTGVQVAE

Turning to `O=C(NCc1ccccc1N1CCOCC1)c1cnnc(-c2ccc(OCC3CC3)c(Cl)c2)c1` [Example 27, 6-[3-chloro-4-(cyclopropylmethoxy)phenyl]-N-[(2-morpholinophenyl)methyl]pyridazine-4-carboxamide], the IC50 (usually the concentration that gives 50% inhibition) is less than 500 nM.
In the case of `CN(C)c1ncccc1CNC(=O)c1cnnc(-c2ccc(OCC3CC3)c(Cl)c2)c1` [Example 28, 6-[3-chloro-4-(cyclopropylmethoxy)phenyl]-N-[[2-(dimethylamino)-3-pyridyl]methyl]pyridazine-4-carboxamide] it was less than 500 nM; in that of `O=C(NCc1cccnc1N1CCCC1)c1cnnc(-c2ccc(OCC3CC3)c(Cl)c2)c1` [Example 29, 6-[3-chloro-4-(cyclopropylmethoxy)phenyl]-N-[(2-pyrrolidin-1-yl-3-pyridyl)methyl]pyridazine-4-carboxamide], less than 500 nM.
In the case of `O=C(NCc1cccnc1N1CCCCC1)c1cnnc(-c2ccc(OCC3CC3)c(Cl)c2)c1` [Example 30, 6-[3-chloro-4-(cyclopropylmethoxy)phenyl]-N-[[2-(1-piperidyl)-3-pyridyl]methyl]pyridazine-4-carboxamide] it was less than 500 nM; in that of `O=C(NCc1cc(F)cnc1N1CCOCC1)c1cnnc(-c2ccc(OCC3CC3)c(Cl)c2)c1` [Example 31, 6-[3-chloro-4-(cyclopropylmethoxy)phenyl]-N-[(5-fluoro-2-morpholino-3-pyridyl)methyl]pyridazine-4-carboxamide], less than 500 nM; in that of `O=C(NCc1cncnc1N1CCOCC1)c1cnnc(-c2ccc(OCC3CC3)c(Cl)c2)c1` [Example 32, 6-[3-chloro-4-(cyclopropylmethoxy)phenyl]-N-[(4-morpholinopyrimidin-5-yl)methyl]pyridazine-4-carboxamide], greater than 1000 nM.
With `O=C(NCc1nccnc1N1CCOCC1)c1cnnc(-c2ccc(OCC3CC3)c(Cl)c2)c1` [Example 33, 6-[3-chloro-4-(cyclopropylmethoxy)phenyl]-N-[(3-morpholinopyrazin-2-yl)methyl]pyridazine-4-carboxamide], the IC50 was less than 500 nM.
With `O=C(NCc1cccnc1N1C[C@@H]2C[C@H]1CO2)c1cnnc(-c2ccc(OCC3CC3)c(Cl)c2)c1` [Example 34, 6-[3-chloro-4-(cyclopropylmethoxy)phenyl]-N-[[2-[(1S,4S)-2-oxa-5-azabicyclo[2.2.1]heptan-5-yl]-3-pyridyl]methyl]pyridazine-4-carboxamide], the IC50 is less than 500 nM.
Consider `CS(=O)(=O)c1ccccc1CNC(=O)c1cnnc(-c2ccc(OCC3CC3)c(Cl)c2)c1` [Example 35, 6-[3-chloro-4-(cyclopropylmethoxy)phenyl]-N-[(2-methylsulfonylphenyl)methyl]pyridazine-4-carboxamide], for which the IC50 is 500 to 1000 nM.
On to `COc1ccccc1CNC(=O)c1cnnc(-c2ccc(OCC3CC3)c(Cl)c2)c1` [Example 36, 6-[3-chloro-4-(cyclopropylmethoxy)phenyl]-N-[(2-methoxyphenyl)methyl]pyridazine-4-carboxamide], for which the IC50 is less than 500 nM.
As to `Cc1ccccc1CNC(=O)c1cnnc(-c2ccc(OCC3CC3)c(Cl)c2)c1` [Example 37, 6-[3-chloro-4-(cyclopropylmethoxy)phenyl]-N-(o-tolylmethyl)pyridazine-4-carboxamide], the IC50 is less than 500 nM.
In the case of `[2H]C1([2H])OC([2H])([2H])C([2H])([2H])N(c2ncccc2CNC(=O)c2cnnc(-c3ccc(OCC4CC4)c(Cl)c3)c2)C1([2H])[2H]` [Example 38, 6-[3-chloro-4-(cyclopropylmethoxy)phenyl]-N-[[2-(2,2,3,3,5,5,6,6-octadeuteriomorpholin-4-yl)-3-pyridyl]methyl]pyridazine-4-carboxamide] it was less than 500 nM; in that of `O=C(NCc1cccnc1N1CCOC(C(F)(F)F)C1)c1cnnc(-c2ccc(OCC3CC3)c(Cl)c2)c1` (stereo not shown) [Example 39, 6-[3-chloro-4-(cyclopropylmethoxy)phenyl]-N-[[2-[2-(trifluoromethyl)morpholin-4-yl]-3-pyridyl]methyl]pyridazine-4-carboxamide], 500 to 1000 nM.
For the compound `O=C(NCc1cncc(F)c1)c1cnnc(-c2ccc(OCC3CC3)c(Cl)c2)c1` [Example 40, 6-[3-chloro-4-(cyclopropylmethoxy)phenyl]-N-[(5-fluoro-3-pyridyl)methyl]pyridazine-4-carboxamide], the half-inhibitory concentration (IC50) is less than 500 nM.
In the case of `CCC1CN(c2ncccc2CNC(=O)c2cnnc(-c3ccc(OCC4CC4)c(Cl)c3)c2)CCO1` (stereo not shown) [Example 41, 6-[3-chloro-4-(cyclopropylmethoxy)phenyl]-N-[[2-(2-ethylmorpholin-4-yl)-3-pyridyl]methyl]pyridazine-4-carboxamide] it was less than 500 nM; in that of `CC(C)Oc1ncccc1CNC(=O)c1cnnc(-c2ccc(OCC3CC3)c(Cl)c2)c1` [Example 42, 6-[3-chloro-4-(cyclopropylmethoxy)phenyl]-N-[(2-isopropoxy-3-pyridyl)methyl]pyridazine-4-carboxamide], less than 500 nM; in that of `COc1ncccc1C(C)NC(=O)c1cnnc(-c2ccc(OCC3CC3)c(Cl)c2)c1` (stereo not shown) [Example 43, 6-(3-chloro-4-(cyclopropylmethoxy)phenyl)-N-(1-(2-methoxypyridin-3-yl)ethyl)pyridazine-4-carboxamide], 500 to 1000 nM.
Consider `O=C(NCc1cccnc1N1CCOCC1)c1cnnc(-c2ccc(OCC3CCC3)c(Cl)c2)c1` [Example 44, 6-[3-chloro-4-(cyclobutylmethoxy)phenyl]-N-[(2-morpholino-3-pyridyl)methyl]pyridazine-4-carboxamide], for which the IC50 is less than 500 nM.
Take `CC(Oc1ccc(-c2cc(C(=O)NCc3cccnc3N3CCOCC3)cnn2)cc1Cl)C1CC1` (stereo not shown) [Example 45, 6-[3-chloro-4-(1-cyclopropylethoxy)phenyl]-N-[(2-morpholino-3-pyridyl)methyl]pyridazine-4-carboxamide]: the IC50 was less than 500 nM.
With `O=C(NCc1cccnc1N1CCOCC1)c1cnnc(-c2ccc(OCC3CC3)c(F)c2)c1` [Example 46, 6-[4-(cyclopropylmethoxy)-3-fluoro-phenyl]-N-[(2-morpholino-3-pyridyl)methyl]pyridazine-4-carboxamide], the IC50 was less than 500 nM.
For the compound `O=C(NCc1cccnc1N1CCOCC1)c1cnnc(-c2ccc(OCC3CC3)c(C(F)(F)F)c2)c1` [Example 47, 6-[4-(cyclopropylmethoxy)-3-(trifluoromethyl)phenyl]-N-[(2-morpholino-3-pyridyl)methyl]pyridazine-4-carboxamide], the IC50 was less than 500 nM.
On to `COc1ncccc1CNC(=O)c1cnnc(-c2ccc(OCC3CC3)cc2)c1` [Example 48, 6-[4-(cyclopropylmethoxy)phenyl]-N-[(2-methoxy-3-pyridyl)methyl]pyridazine-4-carboxamide], for which the IC50 was greater than 1000 nM.
Take `O=C(NCc1cc(F)cnc1N1CCOCC1)c1cnnc(-c2ccc(OCC3CC3)cc2)c1` [Example 49, 6-[4-(cyclopropylmethoxy)phenyl]-N-[(5-fluoro-2-morpholino-3-pyridyl)methyl]pyridazine-4-carboxamide]: the IC50 was greater than 1000 nM.
To `CC1COCCN1c1ncccc1CNC(=O)c1cnnc(-c2ccc(OCC3CC3)cc2)c1` (stereo not shown) [Example 50, 6-[4-(cyclopropylmethoxy)phenyl]-N-[[2-(3-methylmorpholin-4-yl)-3-pyridyl]methyl]pyridazine-4-carboxamide] belongs greater than 1000 nM; to `O=C(NCc1cccnc1N1CC2(COC2)C1)c1cnnc(-c2ccc(OCC3CC3)cc2)c1` [Example 52, 6-[4-(cyclopropylmethoxy)phenyl]-N-[[2-(2-oxa-6-azaspiro[3.3]heptan-6-yl)-3-pyridyl]methyl]pyridazine-4-carboxamide], greater than 1000 nM.
